Experimental data as given in ChEMBL document CHEMBL1150406, “Novel triterpenoid from Citrus aurantium L. possesses chemopreventive properties against human colon cancer cells” (Bioorg Med Chem, 2008).
Activity calls are given as the source filed them. The calls are words filed in the database; no cut-off is given here.

Tests used:
HT-29 [1] = experiment: Cell cycle arrest in human HT29 cells assessed as background aggregates and debris at 5 uM after 48 hrs by flow cytometry; format: functional
HT-29 [2] = experiment: Cytotoxicity against human HT29 cells at 2.5 uM after 48 hrs by MTT assay; format: functional, cell-based
HT-29 [3] = experiment: Cytotoxicity against human HT29 cells at 5 uM after 72 hrs by MTT assay; format: functional
HT-29 [4] = experiment: Cell cycle arrest in human HT29 cells by accumulation at G0/G1 phase at 5 uM after 48 hrs by flow cytometry; format: functional
HT-29 [5] = experiment: Cell cycle arrest in human HT29 cells by accumulation at S phase at 5 uM after 48 hrs by flow cytometry; format: functional
HT-29 [6] = experiment: Cell cycle arrest in human HT29 cells by accumulation at G2/M phase at 5 uM after 48 hrs by flow cytometry; format: functional
HT-29 [7] = experiment: Cell cycle arrest in human HT29 cells assessed as background aggregates and debris at 10 uM after 48 hrs by flow cytometry; format: functional
HT-29 [8] = experiment: Cell cycle arrest in human HT29 cells by accumulation at G0/G1 phase at 10 uM after 48 hrs by flow cytometry; format: functional
HT-29 [9] = experiment: Cell cycle arrest in human HT29 cells by accumulation at S phase at 10 uM after 48 hrs by flow cytometry; format: functional
HT-29 [10] = experiment: Cell cycle arrest in human HT29 cells by accumulation at G2/M phase at 10 uM after 48 hrs by flow cytometry; format: functional
[11] = Growth inhibition of monkey COS1 cells by flow cytometry; format: cell-based; conditions: cos-1
HT-29 [12] = experiment: Induction of apoptosis in human HT29 cells at 10 uM by nuclear staining method; format: functional, cell-based
HT-29 [13] = experiment: Cytotoxicity against human HT29 cells at 10 uM after 24 hrs by MTT assay; format: functional, cell-based
HT-29 [14] = experiment: Cytotoxicity against human HT29 cells after 48 hrs by MTT assay; format: functional, cell-based

| Structure (SMILES) | Activity (HT-29 [1]) [%] | Activity (HT-29 [2]) | Activity (HT-29 [3]) [%] | Activity (HT-29 [4]) [%] | Activity (HT-29 [5]) [%] | Activity (HT-29 [6]) [%] | Activity (HT-29 [7]) [%] | Activity (HT-29 [8]) [%] | Activity (HT-29 [9]) [%] | Activity (HT-29 [10]) [%] | Activity [11] | Activity (HT-29 [12]) | Activity (HT-29 [13]) | Activity (HT-29 [14]) |
| --- | --- | --- | --- | --- | --- | --- | --- | --- | --- | --- | --- | --- | --- | --- |
| CC1(C)OC[C@@]2([C@@H](O)CC(=O)O)[C@H]3CC[C@@]4(C)[C@H](c5ccoc5)OC(=O)[C@H]5O[C@]54[C@]3(C)C(=O)C[C@@H]12 [ISOLIMONOIC ACID] | 34.8 | Active | 20 | 91 | 4 | 6.1 | 75.5 | 69.9 | 12.7 | 17.4 | Not Active | Active |  |  |
| CC(C)(O)[C@@H]1CC(=O)[C@]2(C)[C@H](CC[C@@]3(C)[C@H](C4=CC(O)OC4=O)OC(=O)[C@H]4O[C@]432)[C@]12COC(=O)C[C@@H]2O (stereo partly specified) [ICHANEXIC ACID] | 42.9 | Active | 20 | 91.3 | 4.1 | 8.7 | 75.1 | 70.2 | 6 | 23.8 | Not Active | Active | Active | Active |
